Structures can show the parent of a compound that is named as a salt. Where two headings read alike, the source gives them in different places.
Molecular target: BRD4 (BD1+BD2) bromodomain (Homo sapiens (Human), UniProt O60885)
Assay: BRD4 binding inhibition (AlphaScreen, GST-BRD4 vs tetraacetylated histone H4 peptide)
Procedure, shortened: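 GST-BRD4 (BD1+BD2) and biotinylated tetraacetyl-histone H4 peptide, each at 100 nM in HEPES pH 7.4 buffer with BSA and DTT, were combined with compound. Glutathione acceptor and streptavidin donor beads were added, then incubated 30 min at room temperature in the dark. Read-out was AlphaScreen signal.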

[1] = GST-BRD4 (BD1+BD2) / biotinylated acetyl-histone H4 (Lys5,8,12,16) peptide, read-out: IC50, BRD4 binding inhibition
[2] = GST-BRD4 (BD1+BD2) vs biotinylated acetyl-histone H4 peptide, AlphaScreen, read-out: BRD4 IC50

| Molecule | IC50 [1] | IC50 [2] |
| --- | --- | --- |
| CCOC(=O)CC(=O)NCCCCNc1nc2cc(OCCOC)ccc2n2c(C)nnc12 [Example 394, N-{4-[7-(2-methoxy-ethoxy)-1-methyl-[1,2,4]triazolo[4,3-a]quinoxaline-4-ylamino]-butyl}-malonamic acid ethylester] | ≤ 50 nM | 34 nM |
| COc1cc2nc(NCCCCNC(=O)CC(C)C)c3nnc(C(C)C)n3c2cc1OC [Example 603, N-[4-(1-isopropyl-7,8-dimethoxy-[1,2,4]triazolo[4,3-a]quinoxaline-4-ylamino)-butyl]-3-methyl-butyramide] | ≤ 50 nM | 34 nM |
| Cc1nnc2c(NCCCCNC(=O)c3ccccc3)nc3ccc(F)cc3n12 [Example 51, N-[4-(8-fluoro-1-methyl-[1,2,4]triazolo[4,3-a]quinoxaline-4-ylamino)-butyl]-benzamide] | ≤ 50 nM |  |
| Cc1nnc2c(NCCCCOC(=O)c3ccccc3)nc3ccccc3n12 [Example 634, benzoic acid-4-(1-methyl-[1,2,4]triazolo[4,3-a]quinoxaline-4-ylamino)-butylester] |  | 91 nM |
| Cc1nnc2c(NCCCCNC(=O)C(C)(C)C)nc3cc(Cl)c(Cl)cc3n12 [Example 28, N-[4-(7,8-dichloro-1-methyl-[1,2,4]triazolo[4,3-a]quinoxaline-4-ylamino)-butyl]-2,2-dimethyl-propionamide] |  | 96 nM |
| Cc1nnc2c(NCCCCNC(=O)OC(C)(C)C)nc3ccc(N)cc3n12 [Example 542, [4-(8-amino-1-methyl-[1,2,4]triazolo[4,3-a]quinoxaline-4-ylamino)-butyl]-carbamic acid-tert-butylester] |  | 61 nM |
| N-(4-{7-[4-(N-hydroxycarbamimidoyl)-benzoyl]-1-methyl-[1,2,4]triazolo[4,3-a]quinoxaline-4-ylamino}-butyl)-3-methyl-butyramide [Example 347] | ≤ 50 nM | 18 nM |
| COc1c(C)ccc2c1nc(NCCCCNC(=O)[C@H](O)C(C)C)c1nnc(C)n12 [Example 136, 2-(R)-hydroxy-N-[4-(6-methoxy-1,7-dimethyl-[1,2,4]triazolo[4,3-a]quinoxaline-4-ylamino)-butyl]-3-methyl-butyramide] | ≤ 50 nM | 58 nM |
| Cc1nnc2c(NCCCCNC(=O)[C@H](O)C(C)C)nc3cc4c(cc3n12)OCCO4 [Example 182, 2-(R)-hydroxy-3-methyl-N-[4-(1-methyl-8,9-dihydro-7,10-dioxa-2,3,5,11b-tetraaza-cyclopenta[a]anthracene-4-ylamino)-butyl]-butyramide] | ≤ 50 nM | 22 nM |
| Cc1nnc2c(NCCCCCC(=O)NCC(C)C)nc3ccccc3n12 [Example 662, 6-(1-methyl-[1,2,4]triazolo[4,3-a]quinoxaline-4-ylamino)-hexanoic acid isobutylamide] | ≤ 50 nM | 39 nM |
| CCC(C)CC(=O)NCCCCNc1nc2c(OC)cc(OC)c(OC)c2n2c(C)nnc12 (stereo not drawn) [Example 489, 3-methyl-pentanoic acid-[4-(6,8,9-trimethoxy-1-methyl-[1,2,4]triazolo[4,3-a]quinoxaline-4-ylamino)-butyl]-amide] | ≤ 50 nM | 30 nM |
| COCCOc1ccc2c(c1)nc(NCCCCNC(=O)[C@@H](NC(=O)CC(C)C)C(C)C)c1nnc(C)n12 [Example 401, (S)-N-{4-[7-(2-methoxy-ethoxy)-1-methyl-[1,2,4]triazolo[4,3-a]quinoxaline-4-ylamino]-butyl}-3-methyl-2-(3-methyl-butyrylamino)-butyramide] | ≤ 50 nM | 12 nM |
| Cc1ccc2nc(NCCCCNC(=O)OC(C)(C)C)c3nnc(C)n3c2c1 [Example 40, [4-(1,8-dimethyl-[1,2,4]triazolo[4,3-a]quinoxaline-4-ylamino)-butyl]-carbamic acid-tert-butylester] |  | 69 nM |
| CC(=O)Nc1ccc2nc(NCCCCNC(=O)C(C)(C)C)c3nnc(C)n3c2c1 [Example 547, N-[4-(8-acetamino-1-methyl-[1,2,4]triazolo[4,3-a]quinoxaline-4-ylamino)-butyl]-2,2-dimethyl-propionamide] | ≤ 50 nM |  |
| COCCOc1ccc2c(c1)nc(NCCCCNC(=O)c1ccccn1)c1nnc(C)n12 [Example 416, pyridine-2-carboxylic acid-{4-[7-(2-methoxy-ethoxy)-1-methyl-[1,2,4]triazolo[4,3-a]quinoxaline-4-ylamino]-butyl}-amide] |  | 52 nM |

Other lines, results leading:

| IC50 [1] | IC50 [2] | Molecule |
| --- | --- | --- |
| ≤ 50 nM |  | COCCOc1ccc2c(c1)nc(NCCCCNC(=O)[C@@H](NS(C)(=O)=O)C(C)C)c1nnc(C)n12 [Example 405, 2-(S)-methanesulfonylamino-{4-[7-(2-methoxy-ethoxy)-1-methyl-[1,2,4]triazolo[4,3-a]quinoxaline-4-ylamino]-butyl}-3-methyl-butyramide] |
| ≤ 50 nM | 15 nM | COCCOc1ccc2c(c1)nc(NCCCCNC(=O)[C@@H](NC(=O)[C@@H](O)C(C)C)C(C)C)c1nnc(C)n12 [Example 404, 2-(S,S)-hydroxy-N-(1-{4-[7-(2-methoxy-ethoxy)-1-methyl-[1,2,4]triazolo[4,3-a]quinoxaline-4-ylamino]-butylcarbamoyl}-2-methyl-propyl)-3-methyl-butyramide] |
| ≤ 50 nM |  | COc1cc(C)c2c(c1)nc(NCCCCNC(=O)OC(C)C)c1nnc(C)n12 [Example 457, [4-(7-methoxy-1,9-dimethyl-[1,2,4]triazolo[4,3-a]quinoxaline-4-ylamino)-butyl]-carbamic acid-isopropylester] |
| ≤ 50 nM | 34 nM | Cc1nnc2c(NCCCCNC(=O)[C@@H](NC(=O)[C@H](C)O)C(C)C)nc3cc(N4CCOCC4)ccc3n12 [Example 504, (S)-2-(2-(S)-hydroxy-propionylamino)-3-methyl-N-[4-(1-methyl-7-morpholine-4-yl-[1,2,4]triazolo[4,3-a]quinoxaline-4-ylamino)-butyl]-butyramide hydrochloride] |
|  | 56 nM | COc1ccc2c(c1)nc(NCCCCNC(=O)[C@H](C(C)C)N1CCOCC1)c1nnc(C)n12 [Example 314, N-[4-(7-methoxy-1-methyl-[1,2,4]triazolo[4,3-a]quinoxaline-4-ylamino)-butyl]-3-methyl-2-(S)-morpholine-4-yl-butyramide] |
| ≤ 10 nM | 7 nM | Cc1noc(C)c1-c1ccc2c(c1)nc(NCCCCNC(=O)[C@@H](O)C(C)C)c1nnc(C)n12 [Example 587, N-{4-[7-(3,5-dimethyl-isoxazol-4-yl)-1-methyl-[1,2,4]triazolo[4,3-a]quinoxaline-4-ylamino]-butyl}-2-(S)-hydroxy-3-methyl-butyramide] |
|  | 64 nM | COc1ccc2c(c1)nc(NCCCCNC(=O)[C@@H](N)Cc1ccc(O)cc1)c1nnc(C)n12 [Example 326, 2-(S)-amino-3-(4-hydroxy-phenyl)-N-[4-(7-methoxy-1-methyl-[1,2,4]triazolo[4,3-a]quinoxaline-4-ylamino)-butyl]-propionamide] |
| ≤ 50 nM | 30 nM | COc1ccc2c(nc(NCCCCNC(=O)OC(C)(C)C)c3nnc(C)n32)c1Cl [Example 459, [4-(6-chloro-7-methoxy-1-methyl-[1,2,4]triazolo[4,3-a]quinoxaline-4-ylamino)-butyl]-carbamic acid-tert-butylester] |
| ≤ 50 nM |  | Cc1ccc2nc(NCCCCNC(=O)c3ccccc3)c3nnc(C)n3c2c1 [Example 45, N-[4-(1,8-dimethyl-[1,2,4]triazolo[4,3-a]quinoxaline-4-ylamino)-butyl]-benzamide] |
|  | 57 nM | Cc1cccc(C)c1C(=O)NCCCCNc1nc2ccccc2n2c(C)nnc12 [Example 13, 2,6-dimethyl-N-[4-(1-methyl-[1,2,4]triazolo[4,3-a]quinoxaline-4-ylamino)-butyl]-benzamide] |
|  | 85 nM | Cc1nnc2c(NCCCCN)nc3cc(OC(F)(F)F)ccc3n12 [Example 270, N^1-(1-methyl-7-trifluoromethoxy-[1,2,4]triazolo[4,3-a]quinoxaline-4-yl)-butane-1,4-diamine ditrifluoroacetic acid] |
| ≤ 50 nM | 30 nM | Cc1noc(C)c1-c1ccc2nc(NCCCCNC(=O)OC(C)(C)C)c3nnc(C)n3c2c1 [Example 578, {4-[8-(3,5-dimethyl-isoxazol-4-yl)-1-methyl-[1,2,4]triazolo[4,3-a]quinoxaline-4-ylamino]-butyl}-carbamic acid-tert-butylester] |
| ≤ 50 nM | 41 nM | CCOC(=O)CC(=O)NCCCCNc1nc2cc(OC)ccc2n2c(C)nnc12 [Example 305, N-[4-(7-methoxy-1-methyl-[1,2,4]triazolo[4,3-a]quinoxaline-4-ylamino)-butyl]-malonamic acid ethylester] |
|  | 54 nM | Cc1nnc2c(NCCCCNC(=O)CC(C)C)nc3cc(N4CCSCC4)ccc3n12 [Example 523, 3-methyl-N-[4-(1-methyl-7-thiomorpholine-4-yl-[1,2,4]triazolo[4,3-a]quinoxaline-4-ylamino)-butyl]-butyramide] |
|  | 72 nM | COc1ccc(C(=O)c2ccc3c(c2)nc(NCCCCNC(=O)OC(C)(C)C)c2nnc(C)n23)cc1 [Example 262, {4-[7-(4-methoxy-benzoyl)-1-methyl-[1,2,4]triazolo[4,3-a]quinoxaline-4-ylamino]-butyl}-carbamic acid-tert-butylester] |
| ≤ 50 nM | 16 nM | COCCOc1ccc2c(c1)nc(NCCCCNC(=O)OC(C)(C)C)c1nnc(C)n12 [Example 363, {4-[7-(2-methoxy-ethoxy)-1-methyl-[1,2,4]triazolo[4,3-a]quinoxaline-4-ylamino]-butyl}-carbamic acid-tert-butylester] |
| ≤ 50 nM | 33 nM | COc1ccc2c(c1)nc(NCCCCNC(=O)[C@@H](C)O)c1nnc(C)n12 [Example 295, 2-(R)-hydroxy-N-[4-(7-methoxy-1-methyl-[1,2,4]triazolo[4,3-a]quinoxaline-4-ylamino)-butyl]-propaneamide] |

From patent publication US11028090B2 (Dong Wha Pharm. Co., Ltd., priority 2017, dated 2021)
